Measurements taken from US20120122965A1, “COMPOSITIONS FOR SKIN PROTECTION AND IMPROVEMENT OF SKIN DISEASES CONTAINING THE DIBENZO-P-DIOXINE DERIVATIVES” (priority 2007, published 2012).

How the values were obtained:
[1] = test system: B-16 cells (mouse melanoma, ATCC CRL 6323); experiment: Inhibition of melanin synthesis; type: cell-based; settings: 50 μg/ml, 3 days, vs solvent control; for inhibition at 50 µg/mL: Mus musculus, B16, 72 h, read-out: Inhibitory effect on melanin synthesis (%)
Experimental: Catechin, rasveratrol, isoflavone, kojic acid, ascorbic acid, and Moriradicis cortex extracts were used as positive controls.
The B-16 cells (mouse melanoma, ATCC CRL 6323) were maintained in the DMEM medium supplemented 4.5 g/E of glucose, 10% serum, and 1% antibiotic at 37° C. for 24 hours. After the cell was incubated with 0.05% trypsin containing 0.02% EDTA, the cell was plated and incubated for 48 hours. The cells were treated with 50 μg/ml of compositions 1 to 18, or positive controls and incubated at 37° C. for 3 days. The cells were then added with 1 me of lysis buffer (phosphate buffer solution, 0.02% EDTA, 0.05% trypsin) and centrifuged for 5 min After the cells were treated with 5% trichloro acetate (TCA), the farmed melanin was separated and dissolved in 1N NaOH. The absorbance was measured at 475 nm using spectrophotometer. Concentration of melanin was determined by the standard curve of synthetic melanin (SIGMA CO. USA). The cell treated with the same amount of solvent was used as a negative control. The inhibitory effects of each composition on melanin synthesis were determined by following Equation.
{1−(M/M0)}×100 [Equation]
M: amount of melanin of test group or positive controls
M0: amount of melanin of negative control

[2] = test system: elastase; experiment: Inhibition of elastase; type: biochemical; settings: 50 μg/ml, 10 nM elastase, 25° C., 10 min
Experimental: Catechin, rasveratrol, isoflavone, lactokine were used for positive controls. […] The cell treated with the same amount of solvent was used as a negative control. The inhibitory effects of each sample on elastase were determined by following Equation. The results are described in Table 3. {1−(E/E0)}×100 [Equation] E: The absorbance of test group or positive control E0: The absorbance of negative control

[3] = test system: rat basophilic leukemia cell (RBL-2H3); experiment: Inhibition on histamine release (DNP-BSA stimulated); type: cell-based; settings: 50 μg/ml, RBL-2H3 cells, vs negative control
Experimental: In order to assess the anti-inflammation and anti-allergic activities of the compositions in the present invention, the inhibitory effects of the compositions on histamine synthesis, which closely related with inflammation including allergy, were investigated. The inhibitory effects of the compositions on histamine synthesis were assessed using the rat basophilic leukemia cell (RBL-2H3) according to the Kawasaki's method. After the cell (1×10^5 cells/well) was cultured in RPMI 1640 medium supplemented with 2% FBS (fetal bovine serum) and rat anti-DNP (dinitrophenol) IgE at 37° C. for 120 min, the cell was washed with the HPEPS buffer to remove the residual IgE. The cells was incubated in either absence (negative control) or presence (test group) of the com[…]. for 10 min. The cell was then treated with DNP-BSA (Dinitrophenol-conjugated Bovine serum albumin), as a histamine release antigen, for 1 hour at 37° C. After the reaction was stopped by adding the HEPES buffer solution, the supernatant was collected and treated with 20 μl of the perchloric acid and centrifuged. The histamine release in the supernatant was measured using the HPLC. The % inhibitions on histamine release of test group were calculated by following Equation compared with negative control. […] H: histamine release of test group H0: histamine release of negative control

[4] = test system: NB1RGB cells (normal human fibroblast cell line from skin); settings: concentration that reaches 50% of apoptosis, 1 hour incubation
Experimental: (§1) The cytotoxicity of the compositions to the normal skin cell was assessed using the NHEK (F) cells (normal human epidermal keratinocytes of neonatal foreskin cell) and the NB1RGB cells (normal human fibroblast cell line from skin). NHEK (F) and NB1RGB cells, which are main components of the epidermis and Bemis in normal human skin, produce collagen and elastin and provide skin elasticity.
(§2) The mixture of PMS/WST-1 (1-methoxy-5-methylphenazinium methyl sulfate/2-(4-indophenyl)-3-(4-nitrophenyl)-5-(2,4-disulfo phenyl)-2H-tetrazolium monosodium salt) was added to the medium and incubated for 1 hour to generate soluble formosan, and then the absorbance was measured at 415 nm using spectrophotometer. The cells treated with solvent without the compositions were used as a negative control, whereas the cells treated with 1% (w/v) SDS solution were used as a positive control (100% cell apoptosis).
(§3) apoptosis(%)=(A0−A/A0−As)×100 [Equation]
(§4) A0=absorbance of the cell that was not treated with the composition
(§5) A=absorbance of the cell that was treated with the composition […]
(§6) As=absorbance of the cell that was treated with 1% (w/v) SDS (positive control group)

[5] = test system: NHEK (F) cells (normal human epidermal keratinocytes of neonatal foreskin cell); settings: concentration that reaches 50% of apoptosis, 1 hour incubation
Experimental: as §1, §2, §3, §4, §5, §6

[6] = test system: TG (triacyl glycerol) synthesis; experiment: Inhibition of TG synthesis in hamster auricles; type: in vivo; settings: hamster auricles, 200 μl of 10% solution topically once a day for 14 days; control group = 100
Experimental: The prevention and treatment effects of the compositions on the acne were assessed through the inhibition of TG (triacyl glycerol) synthesis and sebocyte proliferation in hamster model.
The inhibitory effects of the composition 6 and 14 on TG synthesis were assessed as compared with catechin (positive control group). 5 week-old male hamster was divided into three groups (negative control group, test group, positive control group) and housed 10 animals to a cage after the acclimatization for 2 weeks. Animal rooms were maintained at 25±1° C. and 55% of humidity with a 12-hr light/dark cycle. The animals were freely accessed to diet and water throughout the study. The auricles of hamster were topically treated once a day for 14 days with 200 μl of 10% of the composition 6, 14 or catechin. The solvent for topical application was composed of a mixture of ethanol and glycerol (95:5, v/v). The animals in negative control group were treated with the same volume of vehicle. The auricles were separated from the body and the sebum generated on the skin surface was extracted with acetone. The amount of TG in skin surface was calculated from the sebum extracts. Sebocyte were suspended into solution from the auricle tissues using sonicator, and then amount of intercellar TG was determined by automatic thin-layer chromatography using triolate as a standard. The relative TG concentrations of each sample were calculated from comparison with negative control.

Oc1cc(O)cc(Oc2c(O)cc(O)c3c2Oc2c(O)cc(Oc4c(O)cc(Oc5c(O)cc(O)c6c5Oc5c(O)cc(O)cc5O6)cc4O)cc2O3)c1 [composition 2]
Inhibitory effect on melanin synthesis (%) [1]: 82.0% | Inhibition of Elastase (%) [2]: 86.4% | % Inhibition on histamine release [3]: 70.3% | LD50 (μM) NB1RGB cell [4]: 150.3 µM | LD50 (μM) NHEK (F) cell [5]: 48.9 µM

catechin [reference compound]
Inhibitory effect on melanin synthesis (%) [1]: 50.4% | Inhibition of Elastase (%) [2]: 50.4% | Relative TG concentration in the skin cell (%) [6]: 110.4% | Relative TG concentration in the skin surface (%) [6]: 108.2%

Oc1cc(O)cc(Oc2cc(O)c3c(c2)Oc2c(O)cc(O)c(Oc4cc(O)cc(O)c4)c2O3)c1 [composition 8]
Inhibitory effect on melanin synthesis (%) [1]: 87.6% | Inhibition of Elastase (%) [2]: 87.7% | % Inhibition on histamine release [3]: 62.9% | LD50 (μM) NB1RGB cell [4]: 104.8 µM | LD50 (μM) NHEK (F) cell [5]: 93.2 µM

Oc1cc(O)cc(Oc2c(O)cc(O)c3c2Oc2c(O)cc4oc5c(Oc6cc(O)cc(O)c6)c(O)cc(O)c5c4c2O3)c1 [composition 4]
Inhibitory effect on melanin synthesis (%) [1]: 82.3% | Inhibition of Elastase (%) [2]: 85.4% | % Inhibition on histamine release [3]: 80.3%

Oc1cc(O)cc(Oc2c(O)cc(O)c3c2Oc2c(O)cc(O)cc2O3)c1 [composition 1]
Inhibitory effect on melanin synthesis (%) [1]: 84.3% | Inhibition of Elastase (%) [2]: 87.4% | % Inhibition on histamine release [3]: 60.4% | LD50 (μM) NB1RGB cell [4]: 110.4 µM | LD50 (μM) NHEK (F) cell [5]: 56.4 µM

O=C1O[C@H]([C@@H](O)CO)C(O)=C1O [ascorbic acid, reference compound]
inhibition at 50 µg/mL [1]: 65.3%

Oc1cc(O)cc(Oc2c(O)cc(O)c3c2Oc2c(O)cc(O)c(-c4c(O)cc(O)c5c4Oc4c(O)cc(O)c(Oc6cc(O)cc(O)c6)c4O5)c2O3)c1 [composition 5]
Inhibitory effect on melanin synthesis (%) [1]: 83.5% | Inhibition of Elastase (%) [2]: 90.4% | % Inhibition on histamine release [3]: 77.4% | LD50 (μM) NHEK (F) cell [5]: 100.4 µM

O=c1cc(CO)occ1O [kojic acid, reference compound]
inhibition at 50 µg/mL [1]: 60.3%

Oc1ccc(/C=C/c2cc(O)cc(O)c2)cc1 [rasveratrole, reference compound]
Inhibitory effect on melanin synthesis (%) [1]: 40.9% | Inhibition of Elastase (%) [2]: 48.3%

Oc1cc(O)cc(Oc2c(Oc3c(O)cc(O)cc3O)cc(O)c3c2Oc2c(O)cc(O)cc2O3)c1 [composition 9]
Inhibitory effect on melanin synthesis (%) [1]: 84.3% | Inhibition of Elastase (%) [2]: 82.7% | % Inhibition on histamine release [3]: 72.1% | LD50 (μM) NB1RGB cell [4]: 114.3 µM | LD50 (μM) NHEK (F) cell [5]: 57.2 µM

Oc1cc(O)cc(Oc2c(O)cc(O)c3c2Oc2c(O)cc(O)c(-c4c(O)cc(O)c5c4Oc4c(O)cc(Oc6c(O)cc(O)cc6O)c(Oc6cc(O)cc(O)c6)c4O5)c2O3)c1 [composition 10]
Inhibitory effect on melanin synthesis (%) [1]: 92.1% | Inhibition of Elastase (%) [2]: 88.1% | % Inhibition on histamine release [3]: 83.2% | LD50 (μM) NHEK (F) cell [5]: 48.2 µM

Oc1cc(O)cc(Oc2c(O)cc(O)c3c2Oc2c(O)cc4oc5cc(O)cc(O)c5c4c2O3)c1 [composition 7]
Inhibitory effect on melanin synthesis (%) [1]: 80.5% | Inhibition of Elastase (%) [2]: 88.7% | % Inhibition on histamine release [3]: 70.8% | LD50 (μM) NB1RGB cell [4]: 100.4 µM | LD50 (μM) NHEK (F) cell [5]: 78.9 µM

O=c1c(-c2ccccc2)coc2ccccc12 [isoflavone, reference compound]
inhibition at 50 µg/mL [1]: 64.3% | Inhibition of Elastase (%) [2]: 38.3%
